In patent US7138361B2, “Herbicidal heterocycles” (E. I. du Pont de Nemours and Company, priority 2000, dated 2006):

What was measured:
Assay type in all cases: in vivo
[1] = test system: barnyardgrass (Echinochloa crus-galli); experiment: Test B preemergence
Summary of the method: (§1)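 Ratings on a 0 to 100 visual scale (100 complete control) compare treated plants with controls 13 to 15 days after application. Treatments were pre- or postemergence sprays of compound in non-phytotoxic solvent with surfactant.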

[2] = test system: velvetleaf (Abutilon theophrasti); experiment: Test B preemergence
Summary of the method: as §1

[3] = test system: lambsquarters (Chenopodium album); experiment: Test C preemergence
Summary of the method: (§2)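 Herbicidal effect is a visual 0–100 score (100 = complete control) assigned versus untreated plants, 12 to 14 days after spraying in the greenhouse. Test compounds were applied in a non-phytotoxic, surfactant-containing solvent.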

[4] = test system: johnsongrass (Sorghum halepense); experiment: Test C preemergence
Summary of the method: as §2

[5] = test system: morningglory (Ipomoea hederacea); experiment: Test C preemergence
Summary of the method: as §2

[6] = test system: common ragweed (Ambrosia elatior); experiment: Test C preemergence
Summary of the method: as §2

[7] = test system: woolly cupgrass (Eriochloa villosa); experiment: Test C preemergence
Summary of the method: as §2

Nightshade = experiment: Test C preemergence
corn (Zea mays) = experiment: Test C preemergence
Summary of the method: as §2

[8] = test system: giant foxtail (Setaria faberii); experiment: Test C preemergence
Summary of the method: as §2

[9] = test system: Surinam grass (Brachiaria decumbens); experiment: Test C preemergence
Summary of the method: as §2

[10] = test system: yellow nutsedge (Cyperus esculentus); experiment: Test C preemergence
Summary of the method: as §2

[11] = test system: pigweed (Amaranthus retroflexus); experiment: Test C preemergence
Summary of the method: as §2

Sunflower = experiment: Test C preemergence; settings: Rate 62 g/ha, scale 0 to 100
[12] = test system: barnyardgrass (Echinochloa crus-galli); experiment: Test C flooded paddy test; settings: for Plant response rating, Barnyardgrass: scale 0 to 100 (0 no effect, 100 complete control)
Summary of the method: (§3)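 Visually assessed vs untreated controls 12–14 d post-treatment (greenhouse). Flooded paddy plants were at the 2-leaf stage; scale 0 = no effect, 100 = complete control.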

[13] = test system: duck salad (Heteranthera limosa); experiment: Test C flooded paddy test; settings: for Plant response rating, Ducksalad: scale 0 to 100 (0 no effect, 100 complete control)
Summary of the method: as §3

[14] = test system: smallflower flatsedge (Cyperus difformis); experiment: Test C flooded paddy test; settings: for Plant response rating, Flatsedge: scale 0 to 100 (0 no effect, 100 complete control)
Summary of the method: as §3

rice (Oryza saliva) = experiment: Test C flooded paddy test; settings: for Plant response rating, Rice: scale 0 to 100 (0 no effect, 100 complete control)
Summary of the method: as §3

[15] = Preemergence, Rate 500 g/ha, scale 0 to 100, 0 no effect, 100 complete control
[16] = preemergence, Rate 125 g/ha, scale of 0 to 100 where 0 is no effect and 100 is complete control, 13 to 15 days
[17] = Rate 125 g/ha, scale 0 to 100, 0 no effect, 100 complete control
[18] = preemergence, Rate 62 g/ha, scale 0 to 100
[19] = preemergence, Rate 500 g/ha, visual evaluation after 12 to 14 days
[20] = preemergence, Rate 250 g/ha, scale 0 to 100, 0 no effect, 100 complete control
[21] = Flooded Paddy, Rate 500 g/ha, scale 0 to 100, 0 no effect, 100 complete control
[22] = flooded paddy test, Rate 125 g/ha
[23] = flooded paddy test, Rate 250 g/ha
[24] = flooded paddy test, Rate 62 g/ha, visually evaluated after 12 to 14 days, 0 = no effect, 100 = complete control

CCC(C)c1ccn(C2CCN(c3ccc(Br)c(OC)c3)C2=O)n1 (stereo not shown) [Compound 142]
20: Plant response rating, Velvetleaf [2, 16] | Plant response rating (0 to 100), Nutsedge [10, 19]
50: Plant response rating, Surinam grass [9, 20]
10: Plant response rating (0 to 100), Corn (corn (Zea mays); [19]) | Plant response rating, Sunflower (Sunflower)
55: Rice plant response rating (rice (Oryza saliva); [21])
0: Plant response rating, Johnsongrass [4, 17] | Plant response rating, Johnsongrass [4, 18] | Plant response rating, Ragweed, Common [6, 18] | Plant response rating, Corn (corn (Zea mays); [17]) | Plant response rating, Corn (corn (Zea mays); [18]) | Plant response rating, Corn (corn (Zea mays); [20]) | Plant response rating, Surinam grass [9, 17] | Plant response rating, Surinam grass [9, 18] | Plant response rating, Nutsedge [10, 17] | Plant response rating, Nutsedge [10, 18] | Plant response rating, Nutsedge [10, 20] | Plant response rating (scale 0 to 100), Rice (rice (Oryza saliva); [24])
25: Plant response rating, Rice (rice (Oryza saliva); [22])
30: Plant response rating (scale 0 to 100), Ducksalad [13, 24]
80: Plant response rating (scale 0 to 100), Barnyardgrass [12, 24]
100: Plant response rating, Barnyardgrass [1, 15] | Plant response rating, Barnyardgrass [1, 16] | Plant response rating, Lambsquarters [3, 17] | Plant response rating, Lambsquarters [3, 18] | Plant response rating (0 to 100), Lambsquarters [3, 19] | Plant response rating, Lambsquarters [3, 20] | Plant response rating (0 to 100), Johnsongrass [4, 19] | Plant response rating, Johnsongrass [4, 20] | Plant response rating, Morningglory [5, 17] | Plant response rating (0 to 100), Morningglory [5, 19] | Plant response rating, Morningglory [5, 20] | Plant response rating, Ragweed, Common [6, 17] | Plant response rating (0 to 100), Ragweed, Common [6, 19] | Plant response rating, Ragweed, Common [6, 20] | Plant response rating, Cupgrass, Woolly [7, 17] | Plant response rating (0 to 100), Cupgrass, Woolly [7, 19] | Plant response rating, Cupgrass, Woolly [7, 20] | Plant response rating, Nightshade (Nightshade; [17]) | Plant response rating, Nightshade (Nightshade; Rate 250 g/ha, scale 0 to 100, 0 no effect, 100 complete control) | Plant response rating, Foxtail, Giant [8, 17] | Plant response rating, Foxtail, Giant [8, 18] | Plant response rating (0 to 100), Foxtail, Giant [8, 19] | Plant response rating, Foxtail, Giant [8, 20] | Plant response rating (0 to 100), Surinam grass [9, 19] | Plant response rating, Pigweed [11, 17] | Plant response rating, Pigweed [11, 18] | Plant response rating (0 to 100), Pigweed [11, 19] | Plant response rating, Pigweed [11, 20] | Barnyardgrass plant response rating [12, 21] | Plant response rating, Barnyardgrass [12, 22] | Plant response rating, Barnyardgrass [12, 23] | Ducksalad plant response rating [13, 21] | Plant response rating, Ducksalad [13, 23]
95: Flatsedge plant response rating [14, 21] | Plant response rating, Flatsedge [14, 22] | Plant response rating, Flatsedge [14, 23] | Plant response rating (scale 0 to 100), Flatsedge [14, 24]
90: Plant response rating, Velvetleaf [2, 15] | Plant response rating, Morningglory [5, 18] | Plant response rating, Cupgrass, Woolly [7, 18] | Plant response rating, Nightshade (Nightshade; Rate 62 g/ha, scale 0 to 100) | Plant response rating, Ducksalad [13, 22]
45: Plant response rating, Rice (rice (Oryza saliva); [23])
